According to patent EP4471049A1 (Zealand Pharma A/S, priority 2023, dated 2024):
*1 amine or outer side, *2 acyl side, *3 side chain or, on linkers, in order; H or OH if unused. Where a SMILES comes first, the peptide text is derived from it. Bridges are numbered along the chain shown (N, C = ends). [ ]: non-standard residue; d: D form. 2Nal = N[C@@H](Cc1ccc2ccccc2c1)C(=O)O; AEF = NCCOc1ccc(C[C@H](N)C(=O)O)cc1; X1 = O=C(Cc1ccc(CN[*:1])cc1)[*:2]; 3Pal = N[C@@H](Cc1cccnc1)C(=O)O; Cit = NC(=O)NCCC[C@H](N)C(=O)O; αMeL = CC(C)C[C@](C)(N)C(=O)O; Orn = NCCC[C@H](N)C(=O)O; Dab = NCC[C@H](N)C(=O)O

Key:
[1] = Peptide stability in simulated intestinal fluid (SIF); assay type: in vitro ADME; conditions: 37 °C, pH 6.8, porcine pancreatin 10 g/L, 10 µM; for remaining at 1 h, 10 µM / remaining at 4 h, 10 µM: pig, simulated intestinal fluid (SIF) with porcine pancreatin; for remaining at 4 h, 10 µM: read-out: SIF (% remaining 4 h)
Method: SGF was prepared by dissolving sodium chloride (0.2 g) in 50 mL of water. A volume of 0.7 mL of 10 M HCl was added to adjust the pH of the solution to 1.2 and the volume made up to 100 mL with water. […] SIF was prepared by dissolving monobasic potassium phosphate (0.68 g) in 50 mL of water and adjusting the pH to 6.8 with 1 M NaOH. The volume was subsequently made up to 100 mL with water. 200 mg porcine pancreatin (P1625, Sigma Aldrich) was gently dissolved into 20 mL preheated (37 °C) solution (10 g/L) immediately prior to the incubation.
The incubation was performed at 37 °C with gentle shaking. […] After the last timepoint, the sampling plate was mixed for 10 min on a shaking table and centrifuged 10 min at 2200 g. 70 µL resulting supernatant was diluted with 150 µL water, mixed and centrifugated before analysis by liquid chromatography high resolution mass spectrometry. […] Percent remaining at each timepoint was calculated relative to timepoint zero based on absolute peak areas.
Compounds with a SIF stability (after 4 h) above 70% are considered highly SIF stable.

human IL-23R = target: T1, human IL-23R (Homo sapiens, UniProt Q5VWK5); experiment: biochemical; conditions: for Emax: read-out: % displacement (hIL-23R binding)
T1 sequence (Q5VWK5 22-629): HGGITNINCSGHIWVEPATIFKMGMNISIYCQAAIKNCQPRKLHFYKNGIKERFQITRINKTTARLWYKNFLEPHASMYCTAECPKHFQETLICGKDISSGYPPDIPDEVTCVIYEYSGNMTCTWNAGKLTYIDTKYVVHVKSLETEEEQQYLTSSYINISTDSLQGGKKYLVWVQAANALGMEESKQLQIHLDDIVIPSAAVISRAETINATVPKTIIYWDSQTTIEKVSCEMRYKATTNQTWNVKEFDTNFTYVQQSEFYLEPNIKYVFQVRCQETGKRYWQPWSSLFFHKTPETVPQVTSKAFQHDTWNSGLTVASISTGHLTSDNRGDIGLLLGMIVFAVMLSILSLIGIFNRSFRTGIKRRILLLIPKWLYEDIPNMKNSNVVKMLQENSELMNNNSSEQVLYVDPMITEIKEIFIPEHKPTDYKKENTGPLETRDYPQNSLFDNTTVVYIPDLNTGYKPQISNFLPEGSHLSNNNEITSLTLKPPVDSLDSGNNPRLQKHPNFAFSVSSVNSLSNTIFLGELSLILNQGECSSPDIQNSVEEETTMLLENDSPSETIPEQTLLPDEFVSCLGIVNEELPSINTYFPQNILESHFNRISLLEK
Source text: The compound binding affinity for IL-23R was estimated by the ability of compounds to displace a fluorophore-labelled reference compound from the human IL-23R. The assay principle relies on Bioluminescence Resonance Energy Transfer (BRET) between a fluorophore-labelled reference compound binding to the IL-23R part of a fusion protein consisting of the IL-23R fused to a Nanoluc luciferase enzyme (Nanoluc). The Nanoluc is placed in the N-terminus in close proximity to the binding domain of the ligand. Upon close proximity between the fluorophore of the fluorophore-labelled compound and the Nanoluc of the fusion protein, bioluminescence energy generated from conversion of a Nanoluc substrate, is transferred to the fluorophore resulting in an increase in BRET. In presence of an unlabelled compound, the unlabelled compound displaces the fluorophore-labelled peptide from its binding site resulting in a decrease in BRET. The concentration for which half of the fluorophore-labelled peptide is displaced by the unlabelled compound depends on the affinity of the compound for the IL-23R, and is termed the IC50 concentration.
The plasmid also contained a gene to confer resistance for the antibiotic hygromycin. A cell line stably expressing the Nluc-IL23R fusion protein was generated by transfection of HEK293 cells with the expression plasmid and selected with hygromycin for 3 weeks in Growth medium consisting of DMEM w/ Glutamax-I containing, 10% V/V FBS, 1% V/V P/S, 1 mM Sodium Pyruvate, and 1X NEAA, and 0.3 mg/mL hygromycin. The remaining cells were propagated and considered a stable expressing Nluc-IL23R fusion protein pool clone.
Cells expressing the Nluc-IL23R fusion protein were expanded in Growth medium and membranes prepared by homogenization of a cell pellet from 18 T175 flasks (4 °C in subsequent steps). The cell pellet was lysed Tris 10 mM, 7.5, 1 mM EDTA and protease inhibitors (Complete, Roche) and homogenized using a 15 mL glass-dounce by 50 strokes. The homogenate was spun at spin @1500 rpm for 10 min, the supernatant transferred to SV-34 tubes and spun at 40000g for 20 min at 4 °C to pellet the crude membranes. The supernatant was then removed, the pellet resuspended in 5 mL buffer containing 50 mM HEPES pH 7.4, 5 mM EGTA, and 5 mM MgCl2, and homogenized. Aliquots of the resuspended and homogenized membranes containing the Nluc-IL23R fusion protein were stored at -80 °C until use.
The plate was sealed with light impermeable plate seals, and incubated on an orbital shaker 400 rpm for 2 hours at room temperature. To determine the BRET ratio, the plate seal was removed and 25 µL of the Nanoluc substrate (Promega N1572) diluted 1:500 was added to each well and incubated for 1-2 minutes on an orbital shaker at 400 rpm. […] The BRET ratio was calculated as the fluorescence from the TAMRA/nanoluc bioluminescence.
Compound potency (IC50) and maximal displacement (% displacement) were estimated by computer-aided curve fitting using a 4-parameter logistic (4PL) non-linear model. […]
In this application, the inventors provide the data as IC50 values.

| % displacement (hIL-23R binding) (human IL-23R) [%] | IC50 (human IL-23R) [nM] | remaining at 1 h, 10 µM [1] [%] | remaining at 4 h, 10 µM [1] [%] | Emax (human IL-23R) [%] | Structure (SMILES) | SIF (% remaining 1 h) [1] [%] | SIF (% remaining 4 h) [1] [%] |
| --- | --- | --- | --- | --- | --- | --- | --- |
| – | – | – | – | – | CC(C)C[C@@H]1NC(=O)[C@H](Cc2c[nH]c3ccccc23)NC(=O)[C@H](Cc2c[nH]c3ccccc23)NC(=O)[C@@H]2CSCC(=O)CSC[C@H](NC(=O)[C@H]([C@@H](C)O)NC(=O)[C@@H](NC(=O)CN)CSCC(=O)CSC[C@@H](C(=O)N[C@@H](CO)C(N)=O)NC1=O)C(=O)N[C@@H](Cc1c[nH]c3ccccc13)C(=O)N[C@@H](CCC(=O)O)C(=O)N2 (single isomer, unassigned) [I1 (isomer 3), H-GC(1a)TC(2a)WEC(2a)WWLC(1a)S-[NH2], reference compound] | 0 | 0 |
| – | – | – | – | – | CSCC[C@H](NC(=O)[C@@H]1CSCC(=O)CSC[C@H](NC(=O)[C@@H](N)CCC(=O)O)C(=O)N[C@@H](Cc2c[nH]c3ccccc23)C(=O)N[C@@H](CC(C)C)C(=O)N[C@H]2CSCC(=O)CSC[C@H](NC(=O)[C@H](CC(N)=O)NC(=O)[C@H](CCCNC(=N)N)NC(=O)[C@H](Cc3ccc(O)cc3)NC(=O)[C@H](Cc3ccc(O)cc3)NC2=O)C(=O)N[C@@H](CC(N)=O)C(=O)N1)C(N)=O (single isomer, unassigned) [I4 (isomer 3), H-EC(4a)WLC(5a)YYRNC(5a)NC(4a)M-[NH2], reference compound] | 0 | 0 |
| 97 | 0.012 | 109 | 90 | – | CNC(=O)[C@H](Cc1cccnc1)NC(=O)[C@H](CCN)NC(=O)[C@@H]1CCC(=O)NCc2ccc(cc2)CC(=O)N[C@@H](C)C(=O)N[C@H]2CCC(=O)NCC[C@H](NC(=O)[C@H](CCC(N)=O)NC(=O)[C@H](Cc3c[nH]c4ccccc34)NC2=O)C(=O)N[C@@H](Cc2ccc(OCCN)cc2)C(=O)N[C@@H](Cc2ccc3ccccc3c2)C(=O)N[C@@](C)(CC(C)C)C(=O)N1 [Compound 20, [4-Aminomethyl-phenylacetyl](1c)*AE(2c)WQ[Dab](2c)[Y(2-aminoethoxy)][2-Nal][2-Me-Leu]E(1c)[Dab][3-(3-Pyridyl)-Ala]-[NHMe]] | – | – |
| – | 0.014 | 53 | – | 95 | CNC(=O)[C@H](Cc1cccnc1)NC(=O)[C@H](CCN)NC(=O)[C@@H]1CCC(=O)NCc2ccc(cc2)CC(=O)N[C@@H](Cc2ccccc2)C(=O)N[C@H]2CCC(=O)NCC[C@H](NC(=O)[C@H](CCC(N)=O)NC(=O)[C@H](Cc3c[nH]c4ccccc34)NC2=O)C(=O)N[C@@H](Cc2ccc(OCCN)cc2)C(=O)N[C@@H](Cc2ccc3ccccc3c2)C(=O)N[C@@](C)(CC(C)C)C(=O)N1 [Compound 21, [4-Aminomethyl-phenylacetyl](1c)*FE(2c)WQ[Dab](2c)[Y(2-aminoethoxy)][2-Nal][2-Me-Leu]E(1c)[Dab][3-(3-Pyridyl)-Ala]-[NHMe]] ([X1]FEWQ[Dab][AEF][2Nal][αMeL]E[Dab][3Pal]-NHMe; lactam 3-6, N-10) | – | – |
| – | 0.015 | – | 91 | 95 | CNC(=O)[C@H](Cc1cccnc1)NC(=O)[C@H](CCN)NC(=O)[C@@H]1CCC(=O)NCc2ccc(cc2)CC(=O)N[C@@H](CO)C(=O)N[C@H]2CCC(=O)NCC[C@H](NC(=O)[C@H](CCCNC(N)=O)NC(=O)[C@H](Cc3c[nH]c4ccccc34)NC2=O)C(=O)N[C@@H](Cc2ccc(OCCN)cc2)C(=O)N[C@@H](Cc2ccc3ccccc3c2)C(=O)N[C@@](C)(CC(C)C)C(=O)N1 [Compound 26, [4-Aminomethyl-phenylacetyl](1c)*SE(2c)W[Cit][Dab](2c)[Y(2-aminoethoxy)][2-Nal][2-Me-Leu]E(1c)[Dab][3-(3-Pyridyl)-Ala]-[NHMe]] ([X1]SEW[Cit][Dab][AEF][2Nal][αMeL]E[Dab][3Pal]-NHMe; lactam 3-6, N-10) | – | – |
| 97 | – | – | 110 | – | CNC(=O)[C@H](Cc1cccnc1)NC(=O)[C@H](CCN)NC(=O)[C@@H]1CCC(=O)NCc2ccc(cc2)CC(=O)N[C@@H](CO)C(=O)N[C@H]2CCC(=O)NCC[C@H](NC(=O)[C@H](CCCN)NC(=O)[C@H](Cc3c[nH]c4ccccc34)NC2=O)C(=O)N[C@@H](Cc2ccc(OCCN)cc2)C(=O)N[C@@H](Cc2ccc3ccccc3c2)C(=O)N[C@@](C)(CC(C)C)C(=O)N1 [Compound 28, [4-Aminomethyl-phenylacetyl](1c)*SE(2c)W[Orn][Dab](2c)[Y(2-aminoethoxy)][2-Nal][2-Me-Leu]E(1c)[Dab][3-(3-Pyridyl)-Ala]-[NHMe]] ([X1]SEW[Orn][Dab][AEF][2Nal][αMeL]E[Dab][3Pal]-NHMe; lactam 3-6, N-10) | – | – |
| 96 | – | – | 92 | – | CNC(=O)CC[C@@H]1NC(=O)[C@H](Cc2c[nH]c3ccccc23)NC(=O)[C@@H]2CCC(=O)NCC[C@H](NC1=O)C(=O)N[C@@H](Cc1ccc(OCCN)cc1)C(=O)N[C@@H](Cc1ccc3ccccc3c1)C(=O)N[C@@](C)(CC(C)C)C(=O)N[C@H](C(=O)N[C@@H](CCN)C(=O)N[C@@H](Cc1cccnc1)C(=O)NC)CCC(=O)NCc1ccc(cc1)CC(=O)N[C@@H](CO)C(=O)N2 [Compound 29, [4-Aminomethyl-phenylacetyl](1c)*SE(2c)W[Q(Me)][Dab](2c)[Y(2-aminoethoxy)][2-Nal][2-Me-Leu]E(1c)[Dab][3-(3-Pyridyl)-Ala]-[NHMe]] ([X1]SEWE(NHMe)[Dab][AEF][2Nal][αMeL]E[Dab][3Pal]-NHMe; lactam 3-6, N-10) | – | – |
| 104 | 0.018 | – | 94 | – | CNC(=O)[C@H](Cc1cccnc1)NC(=O)[C@H](CCN)NC(=O)[C@@H]1CCC(=O)NCc2ccc(cc2)CC(=O)N[C@@H](CO)C(=O)N[C@H]2CCC(=O)NCC[C@H](NC(=O)[C@H](CCC(=O)N(C)C)NC(=O)[C@H](Cc3c[nH]c4ccccc34)NC2=O)C(=O)N[C@@H](Cc2ccc(OCCN)cc2)C(=O)N[C@@H](Cc2ccc3ccccc3c2)C(=O)N[C@@](C)(CC(C)C)C(=O)N1 [Compound 30, [4-Aminomethyl-phenylacetyl](1c)*SE(2c)W[Q(2Me)][Dab](2c)[Y(2-aminoethoxy)][2-Nal][2-Me-Leu]E(1c)[Dab][3-(3-Pyridyl)-Ala]-[NHMe]] ([X1]SEWE(NMe2)[Dab][AEF][2Nal][αMeL]E[Dab][3Pal]-NHMe; lactam 3-6, N-10) | – | – |
